# Results published in patent US10912741B2, “Prevention of liver cancer with safranal-based formulations” (United Arab Emirates University, priority 2019, dated 2021).
# Marks after values point to notes of the source that are not given here.
# Assays:
# iNOS = assay: Immunohistochemical staining of liver sections, iNOS positive cells; type: in vivo, albino Wistar rats; details: mean±SEM, 8 rats
# Method: (§1) The experimental hepatocarcinogenesis model was developed according to a protocol by Espandiaria et al. that was adapted for our purposes. To initiate and promote hepatocarcinogenesis, diethylnitrosamine (DEN) and 2-acetylaminofluorene (2-AAF) were used, respectively. For hepatocarcinogenesis initiation in this model, a single DEN dose (200 mg/kg b.wt.) dissolved in saline was injected intraperitoneally. After initiation, all rats underwent one period of 5-days fasting, as mitotic proliferative stimuli. To promote hepatocarcinogenesis, 2-acetylaminofluorene (2-AAF) was introduced in the form of six daily intragastric doses (30 mg/kg in 1% Tween 80); two weeks after DEN treatment.
# (§2) Safranal at doses of 25 mg/kg by weight (b.wt.) and 50 mg/kg b.wt, was administrated orally to rats. These doses have been reported to suppress chemically-induced oxidative damage in rats. A total of 40 adult male albino Wistar rats were randomly divided into […] (n=8) and were subjected to different treatments. Group 1 (control) was orally administered distilled water (5 ml/kg b.wt.) throughout the experimental duration and were injected with a single dose of saline. Group 2 (Safranal only) was subjected to a safranal dose (50 mg/kg b.wt.) through oral administration for the duration of the experimental period. Hepatocarcinogenesis was induced by DEN and promoted by 2-AAF, as reported previously, in group 3 (HCC). Rats in protective groups (groups 4-5) were treated with low/high doses of saffron-based safranal suspensions, at the beginning of promotion periods and continued for 12 weeks. The low dosage treatment with safranal consisted of 25 mg/kg b.wt., and the high dosage treatment consisted of 50 mg/kg b.wt. The experimental design is illustrated in FIG. 1.
# (§3) For immunohistochemical staining, mounted sections were immersed in sodium citrate buffer (0.1 M, pH 6) and placed in a water bath for 15 minutes to unmask antigen epitopes. […] Ten fields were randomly selected to quantify positive cells, in individual samples (400×). […]
# p-H2AX in HepG2 cells = assay: Western blotting, p-H2AX; type: cell-based, human; details: 24 hours of safranal treatment (1 mM)
# Method: HepG2, were cultured in RPMI 1640 medium (HyClone, USA) and 1% of 100 U/ml penicillin and 100 ug/ml streptomycin (Sigma, USA) supplemented with 10% fetal bovine serum (Sigma, USA) at 37° C. in a humidified 5% CO2 atmosphere. Cells were sub-cultured each 4-6 days using trypsin 0.25% (Hyclone, USA).
# In 100 mm plates, HepG2 cells were seeded at a density of 2×10^4 in complete growth medium. Cells were allowed to attach for 24 hours, after which complete growth medium was replaced by serum-free medium. Cells were treated with safranal at a concentration of 1 mM (20 mM stock). Plates were incubated for 6, 12, 24, and 48 hours in a humidified 5% CO2 atmosphere at 37° C. At indicated times, 1 mL of cell supernatant was obtained from each plate and was stored at −80° C. for further analysis by ELISA. After which whole cell lysates were prepared. Bicinchoninic acid (BCA) assay (Sigma-Aldrich, USA) was used to determine concentration of protein. Thirty μg of protein were loaded onto 10% SDS polyacrylamide electrophoresis gels. The gels were transferred onto nitrocellulose membranes prior to immunodetection processing with anti-p-IkB-alpha, anti-H2AX (Cell Signaling Technology, USA), and with anti-rabbit IgG peroxidase conjugated secondary antibodies. […]
# HDAC = HDAC colorimetric assay in liver homogenate; type: in vivo, albino Wistar rats
# Method: as §1
# (§4) Safranal at doses of 25 mg/kg by weight (b.wt.) and 50 mg/kg b.wt, was administrated orally to rats. These doses have been reported to suppress chemically-induced oxidative damage in rats. A total of 40 adult male albino Wistar rats were randomly divided into […] (n=8) and were subjected to different treatments. Group 1 (control) was orally administered distilled water (5 ml/kg b.wt.) throughout the experimental duration and were injected with a single dose of saline. Group 2 (Safranal only) was subjected to a safranal dose (50 mg/kg b.wt.) through oral administration for the duration of the experimental period. […]
# [1] = system: DNA fragmentation (TUNEL-positive cells); assay: TUNEL assay of liver sections (apoptosis); type: in vivo, albino Wistar rats
# Method: as §1
# as §4, with “saline.” for “saline. Group 2 (Safranal only) was subjected to a safranal dose (50 mg/kg b.wt.) through oral administration for the duration of the experimental period.”
# (§5) TUNEL assay was performed for the purpose of assessing apoptosis. […] DNA fragmentation, a key indicator of apoptosis, is detected using this kit. […]
# [2] = system: caspase-cleaved fragment of cytokeratin18 (M30 CytoDeath); assay: M30 CytoDeath staining of liver sections (early apoptosis); type: in vivo, albino Wistar rats
# Method: as §1
# Safranal at doses of 25 mg/kg by weight (b.wt.) and 50 mg/kg b.wt, was administrated orally to rats. These doses have been reported to suppress chemically-induced oxidative damage in rats. […]
# as §5, §3
# [3] = system: alveolar human lung cancer A549; details: A549 cell line, reported in the background; cited from earlier work
# HeLa cells = details: reported in the background; cited from earlier work
# ED-2 (Kupffer cells) = assay: Immunohistochemical staining of liver sections, ED-2 positive cells (Kupffer cells); type: in vivo, albino Wistar rats; details: mean±SEM, 8 rats
# Method: as §1, §2, §3
# COX-2 = assay: Immunohistochemical staining of liver sections, COX-2 positive cells; type: in vivo, albino Wistar rats; details: mean±SEM, 8 rats
# Method: as §1, §2, §3
# [4] = HCC (DEN/2-AAF) rats + safranal high dose 50 mg/kg b.wt. oral, 12 weeks
# [5] = HCC (DEN/2-AAF) rats + safranal low dose 25 mg/kg b.wt. oral, 12 weeks
# [6] = safranal alone 50 mg/kg b.wt. oral, no DEN (group 2)
# [7] = low/high doses of safranal in animals exposed to DEN, compared to group 3
# [8] = safranal only (group 2), compared to control group
structure (smiles),measurement,setting,value
"CC1=C(C=O)C(C)(C)CC=C1 [Safranal, 2,6,6-trimethylcyclohexa-1,3-diene-1-carbaldehyde]",iNOS positive cells,iNOS; [4],2.57 ± 0.30^b positive cells/field
same,iNOS positive cells,iNOS; [5],5.09 ± 0.26^a&b positive cells/field
same,iNOS positive cells,iNOS; [6],0.87 ± 0.04 positive cells/field
same,protein level of p-H2AX,p-H2AX in HepG2 cells,remarkable induction of p-H2AX
same,HDAC activity in liver,"HDAC; low/high doses of safranal, DEN-treated (groups 4-5)",restored HDAC activity to the normal range
same,HDAC activity in liver,"HDAC; safranal alone (group 2), compared to control",did not change HDAC activity
same,number of TUNEL-positive cells,[1]; [7],significant increase in the number of both TUNEL- and M30 CytoDeath-positive cells
same,number of TUNEL-positive cells,[1]; [8],did not exhibit a notable change
same,number of M30 CytoDeath-positive cells,[2]; [7],significant increase in the number of both TUNEL- and M30 CytoDeath-positive cells
same,number of M30 CytoDeath-positive cells,[2]; [8],did not exhibit a notable change
same,apoptosis,[3],induce apoptosis
same,growth of HeLa cells,HeLa cells,inhibit the growth of HeLa cells
same,ED-2 positive cells,ED-2 (Kupffer cells); [4],46.44 ± 3.12^b positive cells/field
same,ED-2 positive cells,ED-2 (Kupffer cells); [5],46.75 ± 3.04^b positive cells/field
same,ED-2 positive cells,ED-2 (Kupffer cells); [6],39.30 ± 1.77 positive cells/field
same,COX-2 positive cells,COX-2; [4],6.91 ± 1.09^a&b positive cells/field
same,COX-2 positive cells,COX-2; [5],2.15 ± 0.38^b positive cells/field
same,COX-2 positive cells,COX-2; [6],0.58 ± 0.04 positive cells/field
